The values that follow come from US11992499B2, “Quinoline derivatives for use in the treatment of inflammation diseases” (ABIVAX, priority 2018, dated 2024).

This assay relates to monocrotaline model of pulmonary arterial hypertension. In words: Rat monocrotaline model of pulmonary arterial hypertension: mean pulmonary pressure. The format is in vivo. The settings on record: for Effect on pulmonary pressure: pulmonary hypertension induced by monocrotaline; for Mean Pulmonary Pressure: MCT. As for the experimental part: • 1. The experimental trace to be analyzed is opened in Clampfit. • 2. Right atria pressure is recorded for 1 minute • 3. PAP recorded continuously for at least 1 minute or until loss of signal, is used to extract the mean, diastolic, and systolic pulmonary pressure. • 4. The systemic arterial pressure (SAP) recorded continuously is used to extract the mean, diastolic and systolic arterial pressure. • 5. At the end of the hemodynamic parameters recording, the right and left ventricle including the septum and the lung lobes is excised to determine wet weights. • 6. Each parameter is compiled for each group and presented in bar graphs with appropriate statistical analysis.
The appropriate amount of monocrotaline is weighed and ⅓ of the correct volume of 1.0N HCl is added and mixed to ensure monocrotaline solubilisation. The solution is then neutralized with ⅓ of the correct volume of 1.0 N NaOH. The pH of the solution is checked with a pH indicator paper/strip or an electronic pH meter and adjusted to neutral as necessary; the final volume is completed with water for injection to obtain a solution of 20 mg/mL. The monocrotaline solution is injected subcutaneously, over the shoulders, into the loose skin over the neck, to each rat at 3 mL/kg of body weight (dose is 60 mg/kg).
Compound A was administered as a suspension in the vehicle. To reach the required concentrations, compound A was grounded to a fine powder, using a mortar and pestle, and then mixed with 20% (final volume) of vehicle A1 until a suspension was achieved. 80% of vehicle A2 was then added to the suspension under magnetic stirring.
The appropriate amount of Sildenafil is weighed and appropriate volume of distillated water is added to obtain suspension at 5 mg/mL. The suspension is mixed with a stir bar for 30-60 minutes until a homogenous suspension is achieved. Care is taken to maintain a uniform suspension (stirring continuously) whilst doses are being drawn up into gavage syringes. One gavage syringe is filled at a time and administered before filling the next syringe. The solutions are stored refrigerated at 2 to 8° C. and protected from light. The expiration date is set at 7 days after preparation.
Animals from Groups 2 to 5 (see Table 13) receive a single subcutaneous injection of monocrotaline (60 mg/kg) solution on Day 0 and returned to their cages. Animals from Group 1 receive one subcutaneous injection vehicle for MCT on Day 0 and returned to their respective cages.
Treatment with the compound A, sildenafil or vehicle is administered as of Day 7 (Groups 2-5) as scheduled and described in Table 13. The Groups 2-4 receive a single dose per day. The reference group 5 receives sildenafil twice a day. Food and water are given ad libitum. Daily observation of the behaviour and general health status of the animals is done. Weekly body weight is taken.
Surgical Instrumentation and Measurement of Hemodynamic and Functional Parameters in Efficacy Study Animals • 1. On the selected day of surgery, rats are anaesthetized with a mixture of 2 to 2.5% isoflurane USP (Abbot Laboratories, Montreal, Canada) in oxygen, and placed on a heating pad to maintain body temperature. • 2. Rats are tracheotomized and immediately ventilated by means of a positive-pressure rodent respirator set at ≈10 ml/kg bodyweight at a frequency of 65-70 strokes/min. • 3. Lead II ECG contact electrodes is placed on the rat to continuously monitor the ECG during the surgical procedure. • 4. A cannula connected to a pressure transducer is inserted into the left femoral artery to measure the arterial blood pressure. • 5. A cannula connected to a pressure transducer is inserted into the right atria through the right jugular vein to measure the right atria pressure. • 6. The heart is exposed through a sternotomy and a 20GA 1.16 in Insyte is introduced into the right ventricle and rapidly hooked up to a saline filled PE-50 catheter connected to a transducer. • 7. […]

In the case of `FC(F)(F)Oc1ccc(Nc2ccc3cccc(Cl)c3n2)cc1` [8-Chloro-N-(4-(trifluoromethoxy)phenyl)quinolin-2-amine], the “Effect on pulmonary pressure” value (female rat) is recorded as “reduces significantly”.

For `FC(F)(F)Oc1ccc(Nc2ccc3cccc(Cl)c3n2)cc1` [Compound A, 8-Chloro-N-(4-(trifluoromethoxy)phenyl)quinolin-2-amine], the “Mean Pulmonary Pressure” value (female rat, 70 mg/kg QD gavage Day 7 to Day 28, n = 7) was 22.2 mmHg and the “Mean Pulmonary Pressure” value (female rat, 120 mg/kg QD gavage Day 7 to Day 28, n = 11) is recorded as 16.9 mmHg. In addition, the “Effect on pulmonary pressure” value (female rat) is “reduces significantly” and the “Effect on pulmonary pressure” value (male rat) is reported as “no effect”.
